Results from article PMC8564113, “Erianin: A Direct NLRP3 Inhibitor With Remarkable Anti-Inflammatory Activity” (Frontiers in Immunology, 2021).

Biological target: T1, NLRP3 (Homo sapiens, UniProt Q96P20)
T1 construct: purified human GST-NLRP3
Assay: microscale thermophoresis with purified GST-NLRP3; also biotin-Eri pull-down and ATPase inhibition
Format: binding

T1 sequence (Q96P20 whole entry): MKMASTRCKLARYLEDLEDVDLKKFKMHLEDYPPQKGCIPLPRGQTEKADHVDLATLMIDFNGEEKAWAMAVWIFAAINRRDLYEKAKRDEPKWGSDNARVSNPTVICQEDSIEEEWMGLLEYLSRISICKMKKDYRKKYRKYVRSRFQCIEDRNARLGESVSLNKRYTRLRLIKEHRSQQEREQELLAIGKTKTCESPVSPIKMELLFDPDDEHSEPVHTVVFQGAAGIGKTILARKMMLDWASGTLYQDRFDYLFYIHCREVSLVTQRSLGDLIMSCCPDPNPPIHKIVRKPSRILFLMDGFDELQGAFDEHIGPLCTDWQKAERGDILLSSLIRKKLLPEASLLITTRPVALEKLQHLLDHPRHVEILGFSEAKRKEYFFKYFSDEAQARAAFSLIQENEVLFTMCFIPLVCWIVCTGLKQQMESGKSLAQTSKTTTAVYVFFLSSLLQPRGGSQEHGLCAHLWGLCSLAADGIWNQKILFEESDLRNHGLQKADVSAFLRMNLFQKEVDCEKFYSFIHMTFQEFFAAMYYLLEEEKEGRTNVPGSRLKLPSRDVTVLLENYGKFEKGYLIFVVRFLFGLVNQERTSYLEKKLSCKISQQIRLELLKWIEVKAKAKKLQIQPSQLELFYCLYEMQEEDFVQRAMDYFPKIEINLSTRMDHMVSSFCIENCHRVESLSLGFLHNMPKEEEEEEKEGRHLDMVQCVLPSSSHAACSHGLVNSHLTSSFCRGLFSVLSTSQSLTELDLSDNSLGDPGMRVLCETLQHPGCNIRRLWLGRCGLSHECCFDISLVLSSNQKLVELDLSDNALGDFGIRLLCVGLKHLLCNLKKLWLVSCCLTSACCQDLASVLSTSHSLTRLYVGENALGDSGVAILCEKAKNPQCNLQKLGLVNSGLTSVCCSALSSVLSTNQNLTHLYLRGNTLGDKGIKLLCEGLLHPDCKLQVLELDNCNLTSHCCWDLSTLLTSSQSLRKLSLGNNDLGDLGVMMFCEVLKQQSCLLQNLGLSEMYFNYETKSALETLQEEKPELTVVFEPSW

COc1ccc(CCc2cc(OC)c(OC)c(OC)c2)cc1O [Eri, Erianin]
Kd: ~50 nM
